Test results: ChEMBL document CHEMBL4402579, “Identification of Potent In Vivo Autotaxin Inhibitors that Bind to Both Hydrophobic Pockets and Channels in the Catalytic Domain” (J Med Chem, 2020)
Active and inactive are the calls of the source. The calls are words filed in the database; no cut-off is given here.

Legend:
[1] = species: Danio rerio; test: Inhibition of AB/TU zebra fish ATX expressed in one-cell stage zebra fish embryos assessed as rescue of carida bifida phenotype at 10 uM incubated for 12 to 24 hrs post fertilization in presence of Ki16425 by whole mount in situ hybridization based microscopic analysis relative to control
[2] = target: Autotaxin (Mus musculus) (UniProt Q9R1E6); test: Inhibition of mouse ATX expressed in one-cell stage zebra fish embryos assessed as rescue of cardia bifida phenotype at 10 uM incubated for 12 to 24 hrs post fertilization in presence of Ki16425 by whole mount in situ hybridization based microscopic analysis relative to control
[3] = target: Autotaxin (Mus musculus, UniProt Q9R1E6); test: Inhibition of ATX in mouse plasma after 2 hrs by LC-MS/MS analysis; type: cell-free
[4] = target: Autotaxin (Mus musculus) (UniProt Q9R1E6); test: Inhibition of ATX in mouse plasma assessed as reduction in LPA prodution at 10 uM after 3 hrs by LC-MS/MS analysis; type: cell-free
[5] = target: T1, Autotaxin (Homo sapiens, UniProt Q13822); test: Inhibition of ATX (unknown origin) expressed in human HEK293 cells using TG-mTMP as substrate after 2 hrs by fluorescence based plate reader assay
[6] = system: Mus musculus; test: In vivo inhibition of ATX in C57BL/6J mouse assessed as reduction in serum LPA level at 4 mg/kg, iv after 15 mins to 3 hrs by LC-MS/MS analysis; type: functional, organism-based
[7] = target: T1, Autotaxin; test: Inhibition of ATX (unknown origin)-mediated cell migration in human MDA-MB-231 cells assessed as reduction in cell motility after 3 hrs by Diff-Quick staining based microplate reader analysis
[8] = target: Autotaxin (Mus musculus) (UniProt Q9R1E6); test: Inhibition of ATX in mouse plasma assessed as reduction in LPA prodution after 3 hrs by LC-MS/MS analysis; type: cell-free

CCCCCCCN/C=C1\C(=O)N(c2ccc(F)cc2)C(=O)N=C1O showed an inhibition [1] of 1% and an inhibition [2] of 94%.

Work on CCOC(=O)Cn1c(C)cc(=O)n2cc(-c3ccc(N)cc3)nc12 yielded an IC50 ([3]; read-out: IC50) of over 10000 nM.

CCn1c(C)cc(=O)n2cc(-c3ccc(Cl)cc3)nc12 gave an IC50 ([3]; read-out: IC50) of 40 nM.

Cc1cc(=O)n2cc(-c3ccc(Cl)cc3)nc2n1CC(=O)O was tested, and the inhibition [4] was “inactive” and the IC50 ([3]; read-out: IC50) was 7700 nM.

Molecule CCCn1c(C)cc(=O)n2cc(-c3ccc(Cl)cc3)nc12 has an IC50 ([3]; read-out: IC50) of 21 nM.

With Cc1cc(O)n2cc(-c3ccc(F)cc3)nc2n1 the inhibition [4] was “inactive” and the IC50 ([3]; read-out: IC50) was over 50000 nM.

CCCCCn1c(C)cc(=O)n2cc(-c3ccc(F)cc3)nc12 was tested, and the inhibition [4] was “Active” and the IC50 ([3]; read-out: IC50) was 71 nM.

COc1cc(C)nc2nc(-c3ccc(Cl)cc3)cn12 showed an IC50 ([3]; read-out: IC50) of over 50000 nM.

CCOC(=O)Cn1c(C)cc(=O)n2cc(-c3cccc(Br)c3)nc12 showed an IC50 ([3]; read-out: IC50) of 4000 nM.

For CCOC(=O)Cn1c(C)cc(=O)n2cc(-c3ccc(I)cc3)nc12, the IC50 ([3]; read-out: IC50) was 19 nM.

For Cc1cc(O)n2cc(-c3cccc(Br)c3)nc2n1, the inhibition [4] was “inactive” and the IC50 ([3]; read-out: IC50) was over 50000 nM.

For Cc1cc(=O)n2cc(-c3ccc(Cl)cc3)nc2n1C1CCCCC1, the inhibition [4] was “Active” and the IC50 ([3]; read-out: IC50) was 73 nM.

CN1CCN(C2=NC(=O)/C(=C/c3ccc(Cl)c(Cl)c3)S2)CC1 was tested, and the inhibition [1] was 3%, the inhibition [2] was 96% and the IC50 [5] was 180 nM.

CCOC(=O)Cn1c(C)cc(=O)n2cc(-c3ccccc3)nc12 showed an IC50 ([3]; read-out: IC50) of 72 nM.

In the case of CCCCCCCn1c(C)cc(=O)n2cc(-c3ccc(Cl)cc3)nc12, the inhibition [4] is reported as “Active” and the IC50 ([3]; read-out: IC50) is reported as 16 nM.

With CCOC(=O)Cn1c(C)cc(=O)n2cc(-c3ccc(Br)cc3)nc12 the inhibition [4] was “inactive” and the IC50 ([3]; read-out: IC50) was 13 nM.

In the case of CCOC(=O)Cn1c(C)cc(=O)n2cc(-c3cccc([N+](=O)[O-])c3)nc12, the IC50 ([3]; read-out: IC50) is reported as 500 nM.

For CCC(=O)Cn1c(C)cc(=O)n2cc(-c3ccc(Cl)cc3)nc12, the inhibition [4] was “Active” and the IC50 ([3]; read-out: IC50) was 37 nM.

In the case of CCCCn1c(C)cc(=O)n2cc(-c3ccc(Cl)cc3)nc12, the inhibition [4] is reported as “Active” and the IC50 ([3]; read-out: IC50) is reported as 15 nM.

For CCCCCn1c(C)cc(=O)n2cc(-c3ccc(C)cc3)nc12, the inhibition [4] was “Active” and the IC50 ([3]; read-out: IC50) was 44 nM.

Work on CCOC(=O)Cn1c(C)cc(=O)n2cc(-c3ccc(Cl)c(Cl)c3)nc12 yielded an IC50 ([3]; read-out: IC50) of 79 nM.

With CCCCCCCCn1c(C)cc(=O)n2cc(-c3ccc(Cl)cc3)nc12 the IC50 ([3]; read-out: IC50) was 57 nM.

For CCN(C)C(=O)Cn1c(C)cc(=O)n2cc(-c3ccc(Cl)cc3)nc12, the IC50 ([3]; read-out: IC50) was 220 nM.

For Cc1cc(O)n2cc(-c3ccc(Cl)cc3)nc2n1, the inhibition [4] was “inactive” and the IC50 ([3]; read-out: IC50) was over 50000 nM.

In the case of Cc1cc(O)n2cc(-c3ccccc3)nc2n1, the inhibition [4] is reported as “inactive” and the IC50 ([3]; read-out: IC50) is reported as over 50000 nM.

O=C1N=C(N2CCN(Cc3cccc(B(O)O)c3)CC2)S/C1=C\c1ccc(Cl)c(Cl)c1 showed an inhibition [2] of 98% and an IC50 [5] of 13 nM.

With Cc1cc(=O)n2cc(-c3ccc(Cl)cc3)nc2n1CC[N+](C)(C)C the IC50 ([3]; read-out: IC50) was over 50000 nM.

In the case of COC(=O)Cn1c(C)cc(=O)n2cc(-c3ccc(Cl)cc3)nc12, the inhibition [4] is reported as “inactive” and the IC50 ([3]; read-out: IC50) is reported as 26 nM.

In the case of Cc1cc(=O)n2cc(-c3ccc(Cl)cc3)nc2n1CC(=O)OC(C)(C)C, the inhibition [4] is reported as “inactive” and the IC50 ([3]; read-out: IC50) is reported as 90 nM.

For Cc1cc(Cl)n2cc(-c3ccc(Cl)cc3)nc2n1, the IC50 ([3]; read-out: IC50) was over 50000 nM.

For CCCCCCn1c(C)cc(=O)n2cc(-c3ccc(Cl)cc3)nc12, the inhibition [6] was “Active”, the inhibition [4] was “Active” and the inhibition [7] was “Dose-dependent effect”. For the same molecule, the IC50 ([3]; read-out: IC50) was 9.9 nM and the inhibition [8] was “Dose-dependent effect”.

In the case of Cc1nc2ccccn2c(=O)c1Cc1ccc(Cl)cc1, the inhibition [1] is reported as 6% and the inhibition [2] is reported as 91%.

CCOC(=O)Cn1c(C)cc(=O)n2cc(-c3ccc(OC)cc3)nc12 was tested, and the inhibition [4] was “inactive” and the IC50 ([3]; read-out: IC50) was 49 nM.

For CCOC(=O)Cn1c(C)cc(=O)n2cc(-c3cccc(N)c3)nc12, the IC50 ([3]; read-out: IC50) was over 10000 nM.

Work on Cc1cc(=O)n2cc(-c3ccc(Cl)cc3)nc2n1CCS(=O)(=O)O yielded an IC50 ([3]; read-out: IC50) of over 50000 nM.

In the case of CCNC(=O)Cn1c(C)cc(=O)n2cc(-c3ccc(Cl)cc3)nc12, the inhibition [4] is reported as “inactive” and the IC50 ([3]; read-out: IC50) is reported as 370 nM.

With COc1ccc(-c2cn3c(O)cc(C)nc3n2)cc1 the inhibition [4] was “inactive” and the IC50 ([3]; read-out: IC50) was over 50000 nM.

Work on CCOC(=O)Cn1c(C)cc(=O)n2cc(-c3ccc([N+](=O)[O-])cc3)nc12 yielded an IC50 ([3]; read-out: IC50) of 14 nM.

In the case of CC(=O)OCn1c(C)cc(=O)n2cc(-c3ccc(Cl)cc3)nc12, the IC50 ([3]; read-out: IC50) is reported as 30 nM.

CCN1CCN(C2=NC(=O)/C(=C/c3ccc(Cl)cc3)S2)CC1 was tested, and the inhibition [1] was 10% and the inhibition [2] was 95%.

CCCCCn1c(C)cc(=O)n2cc(-c3ccc(Br)cc3)nc12 was tested, and the inhibition [4] was “Active”, the IC50 ([3]; read-out: IC50) was 23 nM and the inhibition [8] was “Dose-dependent effect”.

In the case of Cc1ccc(-c2cn3c(O)cc(C)nc3n2)cc1, the inhibition [4] is reported as “inactive” and the IC50 ([3]; read-out: IC50) is reported as over 50000 nM.

For CCOC(=O)Cn1c(C)cc(=O)n2cc(-c3ccc(F)cc3)nc12, the inhibition [4] was “inactive” and the IC50 ([3]; read-out: IC50) was 31 nM.

With Cc1cc(O)n2cc(-c3ccc(Cl)c(Cl)c3)nc2n1 the inhibition [4] was “inactive” and the IC50 ([3]; read-out: IC50) was over 50000 nM.

CCCCCCCCCC(=O)n1c(C)cc(=O)n2cc(-c3ccc(Cl)cc3)nc12 gave an IC50 ([3]; read-out: IC50) of 160 nM.

Cc1cc(=O)n2cc(-c3ccc(Cl)cc3)nc2n1C was tested, and the IC50 ([3]; read-out: IC50) was 180 nM.

With CCCCCn1c(C)cc(=O)n2cc(-c3ccc(Cl)cc3)nc12 the inhibition [6] was “Active”, the inhibition [4] was “Active” and the IC50 ([3]; read-out: IC50) was 9.4 nM. For the same molecule, the inhibition [8] was “Dose-dependent effect”.

CCCCCCCCCn1c(C)cc(=O)n2cc(-c3ccc(Cl)cc3)nc12 was tested, and the IC50 ([3]; read-out: IC50) was 120 nM.

For Cc1cc(O)n2cc(-c3ccc(Br)cc3)nc2n1, the inhibition [4] was “inactive” and the IC50 ([3]; read-out: IC50) was over 50000 nM.

CCOCCn1c(C)cc(=O)n2cc(-c3ccc(Cl)cc3)nc12 was tested, and the inhibition [4] was “Active” and the IC50 ([3]; read-out: IC50) was 11 nM.

For Cc1cc(=O)n2cc(-c3ccc(Cl)cc3)nc2n1Cc1ccccc1, the inhibition [4] was “Active” and the IC50 ([3]; read-out: IC50) was 31 nM.

In the case of Cc1cc(O)n2cc(-c3cccc([N+](=O)[O-])c3)nc2n1, the inhibition [4] is reported as “inactive” and the IC50 ([3]; read-out: IC50) is reported as over 50000 nM.

For Cc1cc(=O)n2cc(-c3ccc(Cl)cc3)nc2n1CC(=O)OCc1ccccc1, the inhibition [4] was “inactive” and the IC50 ([3]; read-out: IC50) was 56 nM.

With CCOC(=O)Cn1c(C)cc(=O)n2cc(-c3ccc(Cl)cc3)nc12 the inhibition [4] was “inactive”, the inhibition [1] was 8% and the IC50 ([3]; read-out: IC50) was 3.3 nM. For the same molecule, the inhibition [2] was 93% and the IC50 [5] was 4.2 nM.

In the case of Cc1cc(O)n2cc(-c3ccc([N+](=O)[O-])cc3)nc2n1, the inhibition [4] is reported as “inactive” and the IC50 ([3]; read-out: IC50) is reported as over 50000 nM.

CCCCCCCCCCCCCCCC(=O)n1c(C)cc(=O)n2cc(-c3ccc(Cl)cc3)nc12 was tested, and the IC50 [3] was “Nd(Insoluble)”.
